The values below are quoted from earlier work in PubChem BioAssay AID1259409 (Chemical Carcinogenesis Research Information System (CCRIS), 2018).

The data set has as its system rodent chemically induced tumor inhibition, incidence and multiplicity. The data set is described as follows: CCRIS tumor inhibitor studies. Particulars: Carcinogen: 7,12-DIMETHYLBENZ[A]ANTHRACENE, 57-97-6, Route [Inhibitor]: ORAL, Species: RAT, Strain/Sex: SPRAGUE-DAWLEY/FEMALE, Promoter: NONE USED. The source says: The CCRIS database contains chemical records with carcinogenicity, mutagenicity, tumor promotion, and tumor inhibition test results. It was developed by the National Cancer Institute (NCI). Data are derived from studies cited in primary journals, current awareness tools, NCI reports, and other sources. Test results have been reviewed by experts in carcinogenesis and mutagenesis.
CCRIS provides historical information from the years 1985 - 2011. It is no longer updated.
This is an archive assay for CCRIS tumor inhibitor studies.

Consider `C[Se]C#N`, for which the “tumour outcome (control, treated, inhibition, significance)” value is recorded as 88%, 64%, 27%, not significant (Dose [Inhibitor]: 0, 1 PPM (AS SELENIUM) IN DIET BEGINNING 2 WK PRIOR TO CARCINOGEN DOSE AND CONTINUING FOR DURATION OF STUDY (STUDY DURAT, Target Tissue: Type of Lesion: MAMMARY GLAND: ADENOCARCINOMA, Dose [Carcinogen]: 10 MG ONCE AT 55 D OF AGE); 88%, 52%, 41%, p<0.05 (Dose [Inhibitor]: 0, 2 PPM (AS SELENIUM) IN DIET BEGINNING 2 WK PRIOR TO CARCINOGEN DOSE AND CONTINUING FOR DURATION OF STUDY (STUDY DURAT, Target Tissue: Type of Lesion: MAMMARY GLAND: ADENOCARCINOMA, Dose [Carcinogen]: 10 MG ONCE AT 55 D OF AGE); 88%, 40%, 55%, p<0.05 (Dose [Inhibitor]: 0, 3 PPM (AS SELENIUM) IN DIET BEGINNING 2 WK PRIOR TO CARCINOGEN DOSE AND CONTINUING FOR DURATION OF STUDY (STUDY DURAT, Target Tissue: Type of Lesion: MAMMARY GLAND: ADENOCARCINOMA, Dose [Carcinogen]: 10 MG ONCE AT 55 D OF AGE); 25/30 (83%), 19/30 (63%), 24%, not significant (Dose [Inhibitor]: 0.1, 2 PPM (SELENIUM) IN DIET FOR 3 WK BEGINNING 2 WK PRIOR TO CARCINOGEN DOSE (STUDY DURATION: 25 WK), Target Tissue: Type of Lesion: MAMMARY GLAND: TUMOR, Dose [Carcinogen]: 10 MG ONCE).
